Source: patent US20250345378A1 (priority 2022, published 2025)
Read-outs that look alike come from different tables or passages of the source.

Experiments:
[1] = tested on: 88 urinary tract infection E. coli isolates; assay type: cell-based, Escherichia coli
Protocol: (§1) Phage cocktail CK618 was tested in combination with and alongside antibiotics against two isolate panels. The first assay used a panel of 88 contemporaneous urinary tract infection (UTI) isolates from North America, Europe, Latin America, and Asia. […] The second assay used a panel made up of a 300-strain clinical isolate panel (Table 14) with an additional 4 strains of interest. […] Four of the same SOC antibiotics tested against the 88-isolate panel were tested against this panel. The non-SOC antibiotics were not included due to their limited use in clinical settings, and nitrofurantoin was not included due to the low probability of resistance to this drug.
(§2) For both isolate panels, antibiotic concentrations tested were determined by using Clinical and Laboratory Standards Institute (CLSI) or European Committee on Antimicrobial Susceptibility Testing (EUCAST) breakpoints at concentrations that kill susceptible isolates but allow intermediate or resistant isolates to grow in the standard AST microdilution assay (Table 17).
(§3) The composition of the proposed Phase 2 CRISPR-enhanced bacteriophage (CRISPR-phage, hereafter termed ‘crPhage’) cocktail (CK618) has been updated from the CK570 to include six bacteriophages as compared to three bacteriophages in CK570. Bacteriophage cocktail CK618, was prepared such that all bacteriophages had equivalent titers in the final cocktail. The cocktail was then mixed with bacteria to obtain final titers of 1×10^6 plaque-forming unit (PFU)/mL/phage for the cocktail and 1×10^5 colony-forming unit (CFU)/mL for the bacteria, resulting in a multiplicity of infection (MOI) of 10 for each bacteriophage in a sample. Briefly, 5 μl of each sample (CK618 alone, CK618 and antibiotics, antibiotics alone, or medium alone) was added to 5 μl of optical density (OD)-normalized bacterial isolate and 40 μl LB medium. Reactions were incubated at 37° C. with shaking and OD measurements were taken each hour for 20 hours.
(§4) Host range percentage is the percent of isolates that responded to treatment of antibiotics or CK618. In the case of the 88-isolate panel, results were analyzed on the complete panel as well as the subset of classified as multidrug-resistant (MDR) (n=21) and beta-lactam-resistant (n=31).
(§5) The first assay used a panel of 88 contemporaneous isolates. Twenty-one of those strains are classified as MDR, with resistance to 3 or more antibiotic classes. […] The second assay used the panel made up of a 300-strain clinical isolate panel with an additional 4 strains of interest.
(§6) Antibiotic concentrations tested were determined by using CLSI or EUCAST breakpoints at concentrations that kill susceptible strains but allow intermediate or resistant strains to grow in the standard AST microdilution assay (Table 27). LBP-EC01 v.2 was combined with bacteria resulting in a MO of 10 for each bacteriophage in a sample. In the case of the 88-isolate panel, results were analyzed on the complete panel as well as the subset of isolates classified as multidrug-resistant (MDR) (n=21) and beta-lactam-resistant (n=31).

[2] = tested on: 304 E. coli clinical isolates; assay type: cell-based, Escherichia coli; conditions: 304-isolate panel
Protocol: as §1, §2, §3, §4, §5, §6

E. coli (ATCC 700928) = test: Mouse UTI model, CK618 with TMP/SMX vs single agents and Phase 1b LBP-EC01 (Study 21-LOC-035); assay type: in vivo, C3H/OuJ mice; conditions: BID IV at 48, 54, 72, 78, 96 hours p.i.
Protocol: For the LBP-EC01 from the Phase 1b study treatment, animals received the Phase 1 Clinical Trial Material. Bactrim was formulated at a concentration of 6.3 mg/mL.

[3] = tested on: E. coli strain ATCC 700928; test: Mouse UTI model, CK570 IU or IV: bacterial burden in kidneys, bladder, urine; assay type: in vivo, C3H/OuJ mice; conditions: each tissue, all timepoints
From the text: The vehicle used in this study was 1×TBS. […] C3H/OuJ female mice, aged approximately 8 weeks and weighing 21 to 24 grams, were used in this study. Mice were housed with 1 to 5 animals per cage and were provided food (5P76 Prolab isopro irradiated lab diet) and water ad libitum. […] Each mouse was then placed on a board, ventral side up, with the nose inserted into a nose cone supplying isoflurane. The lower abdomen was gently massaged to expel any urine in the bladder. […] For IV administration, mice were manually restrained in a restrainer device, and study treatment was administered via the lateral tail vein. […] For IU administration, the same method was used as for the original administration of E. coli. A dose volume of 50 μL was used for IU administration. […] All CFU data were log-transformed.

E. coli strain b3370 = test: Neutropenic thigh model, Colicin 10 and Colicin U (Study 23-END-056); assay type: in vivo, ICR mouse; conditions: 4 h and 7 h; 295 nM Colicin 10, 29.5 nM Colicin U
Protocol: Study 23-END-056 was performed to evaluate the statistical difference between Control and Colicin treatment and sustained reduction of bacteria burden to LOD with colicin treatment in an ICR mouse model (FIG. 51). Specifically, the efficacy of 29.5 nM Colicin U, and combination therapy of both of 295 nM Colicin 10 & 29.5 nM Colicin U were evaluated in an ICR mouse model compared with no treatment (Table 40 and FIG. 52). In these experiments, due to high endotoxin, Colicin U was diluted 1:10 more than Colicin 10. At the 4 h and 7 h time points, treatment with 295 nM Colicin 10 lowered CFU, whereas no change was seen after treatment with 29.5 Colicin U.

[4] = tested on: E. coli strains b3411 and b3370; test: In vitro CFU reduction by purified colicins; assay type: cell-based, Escherichia coli; conditions: ~30 min, then regrowth
Protocol: Colicins produced an immediate significant reduction of CFU/mL (˜30 min) after adding colicins before bacterial regrowth.

In the case of Trimethoprim/Sulfamethoxazole [TMP/SXT], the “Host Range % on Beta-lactam-Resistant Subset (n = 31), Combination: Antibiotic + CK618 v.2” value ([1]; 88-isolate panel) is reported as 83.9%, the “Host Range % on Beta-lactam-Resistant Subset (n = 31), Single agent treatment” value ([1]; 88-isolate panel) is reported as 25.8% and the “Host Range % on MDR Subset (n = 21), Combination: Antibiotic + CK618 v.2” value ([1]; 88-isolate panel) is reported as 82.5%. For the same molecule, the “Host Range % on MDR Subset (n = 21), Single agent treatment” value ([1]; 88-isolate panel) was 19.0%, the “Host Range % on all Strains (n = 88), Single agent treatment” value ([1]; antibiotic at breakpoint concentration (Table 17), cocktail 1 × 10^6 PFU/ml per bacteriophage, MOI 10) was 42.8% and the “Host Range % on all Strains (n = 88), Combination: Antibiotic + CK618 v.2” value ([1]; antibiotic at breakpoint concentration plus cocktail 1 × 10^6 PFU/ml per bacteriophage) was 85.6%. For the same molecule, the “Host range % on MDR subset (n = 93), Combination: Antibiotic + LBP-CK618” value [2] was 75.3%, the “Host range % on MDR subset (n = 93), Single agent treatment” value [2] was 17.2% and the “Host range % on beta-lactam-resistant subset (n = 91), Combination: Antibiotic + LBP-CK618” value [2] was 78.0%. For the same molecule, the “Host range % on beta-lactam-resistant subset (n = 91), Single agent treatment” value [2] was 29.7%, the “Host Range % on MDR Subset (n = 93), Combination Antibiotic + LBP-EC01 v.2” value ([2]; MDR subset, antibiotic combined with LBP-EC01 v.2) was 75.3% and the “Host range % on MDR subset (n = 93), Single agent treatment” value ([2]; MDR subset, single agent) was 17.2%. The “Host Range % on all Strains (n = 304), Combination: Antibiotic + LBP-EC01 v.2” value ([2]; all strains, antibiotic combined with LBP-EC01 v.2) was 81.9%, the “Host Range % on all Strains (n = 304), Single agent treatment” value ([2]; all strains, single agent) was 46.4% and the “Host Range % on Beta-lactam-Resistant Subset (n = 91), Combination: Antibiotic + LBP-EC01 v.2” value ([2]; beta-lactam-resistant subset, antibiotic combined with LBP-EC01 v.2) was 78.0%. For the same molecule, the “Host range % on beta-lactam-resistant subset (n = 91), Single agent treatment” value ([2]; beta-lactam-resistant subset, single agent) was 29.7% and the “bacterial burden in bladder relative to vehicle and LBP-EC01 from the Phase 1b study, monotherapy” value (E. coli (ATCC 700928)) was “significant decrease in bacterial burden”.

With `O=C(O)c1cn(C2CC2)c2cc(N3CCNCC3)c(F)cc2c1=O` [Ciprofloxacin] the “bacterial burden, positive control” value [3] was “significantly reduced bacterial burden to the LOD in each tissue”.

B1: Colicin 10 (protein)
chain: MDKVTDNSPDVESTESTEGSFPTVGVDTGDTITATLATGTENVGGGGGAFGGASESSAAIHATAKWSTAQLKKHQAEQAARAAAAEAALAKAKSQRDALTQRLKDIVNDALRANAARSPSVTDLAHANNMAMQAEAERLRLAKAEQKAREEAEAAEKALREAERQRDEIARQQAETAHLLAMAEAAEAEKNRQDSLDEEHRAVEVAEKKLAEAKAELAKAESDVQSKQAIVSRVAGELENAQKSVDVKVTGFPGWRDVQKKLERQLQDKKNEYSSVTNALNSAVSIRDAKKTEVQNAEIKLKEAKDALEKSQVKDSVDTMVGFYQYITEQYGEKYSRIAQDLAEKAKGSKFNSVDEALAAFEKYKNVLDKKFSKVDRDDIFNALESITYDEWAKHLEKISRALKVTGYLSFGYDVWDGTLKGLKTGDWKPLFVTLEKSAVDFGVAKIVALMFSFIVGAPLGFWGIAIITGIVSSYIGDDELNKLNELLGI
modifications: Colicin 10
With B1 the “CFU in mouse thigh compared with no treatment” value (E. coli strain b3370) was “lowered CFU” and the “CFU reduction after adding colicins” value [4] was “CFU reduction was observed”.

B2: Colicin U (protein)
chain: MPGFNYGGHGDGTGWSSERGDGPAPGGGMQGNGGGHSGNNDSGSNSVSQQISAIQNDQKLKQKVVNMLIAARKMNPDAKMILGSIAPSGVMQVTIEGVTSTQARQLGLGGLVMGYNASGVIGAVGEIDTGHRLNASGASTPGSETSVDSFVNGQKPAEEWHAVAKDSWTGAGPVNTGLVNNAIKSVRIIKKGYVTGVLTPEEVMNKAEYKAMRQAFDSLPLAKQGEAVRQIVAAWSLAYQDFPVNLKKEMGRVTERIVDAINLALILNQTESRLSESQKNVDVANQIISDTVKAINDVNKKIAEKRNQQVSLTDLMNKKQKEVEDLKKIFKNHSYHRIRDAQREYDDARNKYALLASDINALQAQVSGLTARKQQAEQNKAAAEKAKADAAAKAAAEKAAAEAKAKAEAEKARKEAEEKANDEKAVLTKASEIIISVGDKAGEYLGDKYKVLSREIADNIKNFQGKTIRSYDEAMASVNKLMANPDLKINAADRDAIVNAWKAFDAEDMGNKFAALGKTFKAADYVMKANNVREKSIEGYQTGNWGPLMLEIESWVLSGIASAVALSFFSAIFGTFAMLGVFSTSLAGILAVILAGLVGALIDDNFVDKLNNEIIRPAY
modifications: Colicin U
For B2, the “CFU in mouse thigh compared with no treatment” value (E. coli strain b3370) was “no change” and the “CFU reduction after adding colicins” value [4] was “CFU reduction was observed”.
